In patent US9765063B2, “Amido compounds as RORγt modulators and uses thereof” (New York University, priority 2011, dated 2017):
Entries after “also recorded” stand apart in the source; their conditions may differ.

How the values were obtained:
[1] = Half-life in Human Liver Microsomes (HLM); format: in vitro ADME
Protocol: Test compounds (1 μM) are incubated with 3.3 mM MgCl2 and 0.78 mg/mL HLM (HL101) in 100 mM potassium phosphate buffer (pH 7.4) at 37° C. on the 96-deep well plate. The reaction mixture is split into two groups, a non-P450 and a P450 group. NADPH is only added to the reaction mixture of the P450 group. An aliquot of samples of the P450 group is collected at 0, 10, 30, and 60 min time points, where the 0 min time point indicated the lime at which NADPH is added into the reaction mixture of the P450 group. […] Collected aliquots are extracted with acetonitrile solution containing an internal standard. […] The compound concentration in supernatant is measured by LC/MS/MS system.
The half-life value is obtained by plotting the natural logarithm of the peak area ratio of compounds/internal standard versus time. The slope of the line of best fit through the points yields the rate of metabolism (k). This is converted to a half-life value using following equations: Half-life=ln 2/k

RORα = RORα overexpression dependent IL17a production in human CD4 T cells (FIG. 3); format: cell-based; settings: FIG. 3, FACS, 0.5 μM; listed as NCGC00242624
Protocol: (§1) Briefly, CD3+ CD4+ CD45RA+ naive human T cells were isolated from peripheral blood derived from healthy donors. The naive T cells were cultured in XVIVO-20 (Lonza) medium for 7 days in the presence of IL2 and stimulatory CD3 and CD28 antibodies. Cells were infected with lentivirus encoding human RORα or RORγ and compound or DMSO was added on day 2. FACS plot analysis is shown after gating on GFP expressing (virus infected) cells.

[2] = test system: human Th17 cell differentiation; assay: Human Th17 cell differentiation (FACS, FIG. 2); format: cell-based; settings: FIG. 2, FACS, 0.5 μM; listed as NCGC00242624
Protocol: • 1) S2 cell reporter system: Identified hits from HTS are further screened and their specificity confirmed by testing against RORγ-luc, VP16-luc, RORα-luc, and DHR3-luc reporter S2 cell lines. Compounds either having no activity on VP16, RORα, and DHR3 or having ten times higher IC50 values on such reporters are selected for further tests. • 2) Cytokine induced mouse Th17 cells differentiation. Effects on mouse endogenous RORγt in a relevant physiological setting were determined by testing compounds in the Th17 cell differentiation assay. Compounds having RORγt inhibitory activity are predicted to suppress Th17 cell differentiation. Th1 or regulatory T cell differentiation was used as a counter-screen method to select specific compounds that only affect Th17 cell differentiation without having pleiotrophic effects on general T cell proliferation or cytokine production. • 3) ROR dependent Th17 cell differentiation. Compounds were further tested, by examining their effects on T cells expressing RORα or RORγ. […] Compounds affecting IL17a production or ROR regulatory pathways, however, are expected to inhibit both. • 4) Human Th17 cell differentiation. Compound effects on human RORγt will be tested by treating human cord blood CD4 T cells with select compounds to determine if such compounds alter differentiation into Th17 lineages.
For Th1 differentiation, IL12 (10 ng/ml) and IL2 (100 U/ml) were added to naive CD4 T cell cultures instead of TGFβ and IL6.

RORγt = RORγt overexpression dependent IL17a production in human CD4 T cells (FIG. 3); format: cell-based; settings: FIG. 3, FACS, 0.5 μM; listed as NCGC00242624
Protocol: as §1

[3] = test system: mouse Th17 cell differentiation; assay: Th17 assay: mouse Th17 polarization (IL-17a producing cells, FACS); format: cell-based
Protocol: (§2) Percentage of DMSO treated IL-17a producing cells was set at 100. Naive mouse CD4 T cells (CD25^−, CD62L^+, and CD44^low-int) were sorted and cultured with CD3/CD28 stimulatory antibodies in the presence of TGFβ (0.1 ng/ml) and IL6 (20 ng/ml). Compounds were added on Day 1 and cells were analyzed on Day 4. For intracellular cytokine staining, cells were incubated for 5 h with phorbol ester (50 ng/ml; Sigma), ionomycin (500 ng/ml; Sigma) and GolgiStop (BD). When needed, surfaces were stained by incubation for 15 min on ice with PECy7-conjugated CD4 (BD Biosciences). The Cytofix/Cytoperm buffer set (BD) was used for intracellular staining. Cells were fixed and made permeable for 30 min on ice and were stained for 30 min on ice in permeabilization buffer with Alexa647-conjugated anti-IL17a (eBioscience) and PE-conjugated anti-IFNg (eBioscience). An LSR II (BD Biosciences) and FlowJo software (Tree Star) were used for flow cytometry. RORg IC50 value acquired from the S2 cell reporter assay is listed for comparison.
as §2, with “With respect to the methodological details pertaining to FIG. 1, naive” for “Percentage of DMSO treated IL-17a producing cells was set at 100. Naive mouse”, “(BD).” for “(BD). When needed, surfaces were stained by incubation for 15 min on ice with PECy7-conjugated CD4 (BD Biosciences).”, “anti-IFNγ” for “anti-IFNg”, “cytometry.” for “cytometry. RORg IC50 value acquired from the S2 cell reporter assay is listed for comparison.”

For `COc1cc(O)c(C(CC(=O)N2CC(C)CC(C)C2)c2ccc(C(=O)O)cc2)c(OC)c1` (stereo not shown) [Compound 99, 4-(3-(3,5-Dimethylpiperidin-1-yl)-1-(2-hydroxy-4,6-dimethoxyphenyl)-3-oxopropyl)benzoic acid], the “% Remaining @ 60 min” value ([1]; 1 μM compound, 0.78 mg/mL HLM, 37° C., 60 min) was 51.36%, the “stability compared with compounds 150 and 157” value ([1]; HLM, Table 3 data) was “better or improved stability over the compounds with IDs 150 and 157” and the “stability compared with verapamil” value ([1]; HLM, Table 3 data) was “improved stability with respect to verapamil”. For the same compound, the half-life at 1 μM ([1]; human, human liver microsomes, pH 7.4, 1 μM compound, 0.78 mg/mL HLM, 37° C., Half-life=ln 2/k) was 64.2 min, the microsomal CLint at 1 μM ([1]; human, human liver microsomes, pH 7.4, 1 μM compound, 0.78 mg/mL HLM, 37° C., read-out: CLint (uM/Min/mg proteins)) was 21.6 µL/min/mg and the “RORα overexpression dependent IL17a production in human CD4 T cells” value (RORα) was “unaffected”. The “human Th17 cell differentiation” value [2] was “selectively suppress human Th17; also recorded: suppresses human Th17 cell differentiation to a degree similar to that of NCGC00238427; also recorded: selectively suppresses human Th17 cell differentiation”, the “RORγt overexpression dependent IL17a production in human CD4 T cells” value (RORγt) was “selectively inhibit RORγt dependent; also recorded: selectively inhibits RORγt overexpression dependent IL17a production” and the “mouse Th17 cell differentiation, as measured by IL17a production” value ([3]; FIG. 1, FACS, at the indicated concentrations, listed as NCGC00242624) was “suppresses mouse Th17 cell differentiation with similar activity to NCGC00238427; also recorded: suppress mouse Th17 cell differentiation”. It also gave an IC50 ([3]; naive mouse CD4 T cells, TGFβ and IL6, compounds added Day 1, analyzed Day 4, read-out: Th 17 IC50) of 1 to 10 µM.
